Measurements from patent publication US20080220103A1, “METHOD FOR TREATING/CONTROLLING/KILLING FUNGI AND BACTERIA ON LIVING ANIMALS” (priority 2005, published 2008).
Like-named read-outs stand apart in the source and are kept apart here.

How the values were obtained:
[1] = tested on: S. aureus; test: MIC, CLSI M7-A7, Mueller-Hinton; type: cell-based, Staphylococcus aureus; details: for MIC Range: n = 6 printed
Procedure: (§1) Minimum Inhibitory Concentration (MIC): Minimum inhibitory concentrations of synthetic and semisynthetic and natural products against dermatophytes were determined using a modification of the Clinical Laboratory Standards Institute (CLSI, formerly National Committee of Clinical Laboratory Standards, NCCLS) M38A standard method for dermatophytes, while MIC of these agents against Candida species were determined using the CLSI M27-A2 methodology. The method used to determine the MIC against bacteria was based on the CLSI document M7-A7.
(§2) For bacterial species, the medium used to evaluate the antibacterial activity of agents and essential oils was Mueller-Hinton (Oxoid Ltd., Basingstoke, Hampshire, England). Serial dilutions of miconazole, terbinafine, and tolnaftate were prepared in a range of 0.125-64 μg/ml and serial dilutions of tea tree oil were prepared in a range of 0.0078-4 μg/ml, while those for the rest of the essential oils were prepared in a range 0.031-16 μg/ml.

[2] = tested on: T. rubrum; test: MIC, modified CLSI M38A broth dilution; type: cell-based, Trichophyton rubrum
Procedure: as §1
(§3) For dermatophytes, serial dilutions of terbinafine, tolnaftate were prepared in a range of 0.004-2 μg/ml, while for miconazole concentrations ranged between 0.015-8 μg/ml. Finally, for essential oils, the concentrations tested were between 0.03-16 μg/ml. The only exception was tea tree oil where dilutions were prepared in a range of 0.0078-4 μg/ml. The MIC was read at 4 days post inoculation and defined as the lowest concentration of an agent to inhibit 80% of fungal growth as compared to the growth control (Table 2).

[3] = tested on: S. epidermidis; test: MIC, CLSI M7-A7, Mueller-Hinton; type: cell-based; details: Staphylococcus epidermidis
Procedure: as §1, §2

[4] = tested on: All bacteria (Staphylococcus species); test: MIC, CLSI M7-A7, pooled bacteria; type: cell-based, S. aureus, S. epidermidis; details: Staphylococcus, n = 12
Procedure: as §1, §2
(§4) In the following Tables, MIC50 and MIC90 are defined as the minimal concentrations of a compound that can inhibit 50% and 90% of the tested organisms, respectively.

[5] = tested on: All dermatophytes; test: MIC, modified CLSI M38A, pooled dermatophytes; type: cell-based, E. floccosum, T. rubrum, T. mentagrophytes
Procedure: as §1, §3, §4

[6] = tested on: T. mentagrophytes; test: Minimum fungicidal concentration (Canton et al.); type: cell-based, Trichophyton mentagrophytes; details: for MFC: Trichophyton mentagrophytes
Procedure: (§5) Minimum fungicidal concentration (MFC): The minimum fungicidal concentrations of various agents were determined using the technique described by Canton et al. (Antimicrob Agents Chemother. 2004 8:2477-82). In that method, fungal conidia were collected following growth on potato dextrose agar (PDA) plates and were used to inoculate 96-well plates containing different concentrations of agents. Following incubation at 35° C. for 4 days (for dermatophytes) or 24 hours (for yeast), wells showing no visible growth were cultured to determine the MFC (defined as the lowest concentration of a given agent that kills>99.999% of fungal conidia or spores). The MFC value represents the level of the agent at which spores or conidia were killed.

[7] = tested on: All yeasts; test: MIC, CLSI M27-A2, pooled yeasts; type: cell-based, C. albicans, C. parapsilosis; details: n = 12
Procedure: as §1
(§6) The remaining essential oils were prepared in a dilution range of 0.03-16 μg/ml. For Candida the MIC was read at 24 hours and defined as the lowest concentration to inhibit 50% of fungal growth as compared to the growth control (Table 4).
as §4

[8] = tested on: E. floccosum; test: MIC, modified CLSI M38A broth dilution; type: cell-based, Epidermophyton floccosum
Procedure: as §1, §3

[9] = tested on: C. parapsilosis; test: MIC, CLSI M27-A2; type: cell-based, Candida parapsilosis
Procedure: as §1, §6

[10] = tested on: T. rubrum; test: Minimum fungicidal concentration (Canton et al.); type: cell-based, Trichophyton rubrum; details: for MFC: Trichophyton rubrum
Procedure: as §5

[11] = tested on: E. floccosum; test: Minimum fungicidal concentration (Canton et al.); type: cell-based, Epidermophyton floccosum; details: for MFC: Epidermophyton floccosum
Procedure: as §5

[12] = tested on: T. mentagrophytes; test: MIC, modified CLSI M38A broth dilution; type: cell-based, Trichophyton mentagrophytes
Procedure: as §1, §3

[13] = Staphylococcus aureus, S. aureus
[14] = Trichophyton rubrum, T. rubrum, n = 6
[15] = Epidermophyton floccosum, E. floccosum, n = 6
[16] = Lodderomyces parapsilosis, C. parapsilosis, n = 6
[17] = Trichophyton mentagrophytes, T. mentagrophytes, n = 6

Cc1cccc(N(C)C(=S)Oc2ccc3ccccc3c2)c1 [Tolnaftate, tolnaftate]
1 µg/mL: MFC ([6]; T. mentagrophytes strain 2127, read-out: MFC) | MFC ([6]; T. mentagrophytes strain 2128, read-out: MFC) | MFC ([6]; T. mentagrophytes, n = 6, read-out: MFC, row MIC90)
0.008 to 0.125 µg/mL: MIC Range ([5]; n = 18, listed as tolnaftate) | MIC Range ([12]; T. mentagrophytes, n = 6)
8 µg/mL: MIC ([9]; Lodderomyces parapsilosis, C. parapsilosis strain 7668) | MIC ([9]; Lodderomyces parapsilosis, C. parapsilosis strain 7672) | MIC ([9]; Lodderomyces parapsilosis, C. parapsilosis strain 7995) | MIC ([9]; Lodderomyces parapsilosis, C. parapsilosis strain 8148) | MIC50 [9, 16] | MIC90 [9, 16]
0.5 µg/mL: MFC ([6]; T. mentagrophytes strain 2124, read-out: MFC) | MFC ([6]; T. mentagrophytes strain 2125, read-out: MFC) | MFC ([6]; T. mentagrophytes, n = 6, read-out: MFC, row MIC50) | MIC ([9]; Lodderomyces parapsilosis, C. parapsilosis strain 7629) | MFC ([11]; E. floccosum strain 1926, read-out: MFC) | MFC ([11]; E. floccosum strain 1961, read-out: MFC) | MFC ([11]; E. floccosum, n = 6, read-out: MFC, row MIC90)
0.5 to 16 µg/mL: MIC Range ([9]; C. parapsilosis, n = 6)
0.5 to 1 µg/mL: MFC range (row MIC Range) ([6]; T. mentagrophytes, n = 6)
0.008 to 0.015 µg/mL: MIC Range ([2]; T. rubrum, n = 6)
0.06 to 0.125 µg/mL: MIC Range ([8]; E. floccosum, n = 6) | MFC range (row MIC Range) ([10]; T. rubrum, n = 6)
0.008 µg/mL: MIC ([2]; Trichophyton rubrum, T. rubrum strain 2246) | MIC ([2]; Trichophyton rubrum, T. rubrum strain 8063) | MIC ([12]; Trichophyton mentagrophytes, T. mentagrophytes strain 1720)
0.25 to 0.5 µg/mL: MFC range (row MIC Range) ([11]; E. floccosum, n = 6)
2 µg/mL: MIC ([3]; S. epidermidis strain 8472, read-out: MIC) | MIC ([3]; S. epidermidis strain 8474, read-out: MIC) | MIC ([3]; S. epidermidis, two strains, read-out: MIC values)
16 µg/mL: MIC ([3]; S. epidermidis strain 8473, read-out: MIC) | MIC50 ([3]; S. epidermidis, n = 6) | MIC50 [7] | MIC ([9]; Lodderomyces parapsilosis, C. parapsilosis strain 8442)
0.25 µg/mL: MFC ([11]; E. floccosum strain 1666, read-out: MFC) | MFC ([11]; E. floccosum strain 1798, read-out: MFC) | MFC ([11]; E. floccosum strain 1925, read-out: MFC) | MFC ([11]; E. floccosum strain 2165, read-out: MFC) | MFC ([11]; E. floccosum, n = 6, read-out: MFC, row MIC50)
>64 µg/mL: MIC ([1]; S. aureus strain 733) | MIC ([1]; S. aureus strain 734) | MIC ([1]; S. aureus strain 8470) | MIC Range ([1]; S. aureus, listed as TOLNAFTATE)
0.015 µg/mL: MIC ([2]; Trichophyton rubrum, T. rubrum strain 1967) | MIC ([2]; Trichophyton rubrum, T. rubrum strain 2098) | MIC ([2]; Trichophyton rubrum, T. rubrum strain 8071) | MIC ([2]; Trichophyton rubrum, T. rubrum strain 8092) | MIC50 [2, 14] | MIC90 [2, 14]
8 to 16 µg/mL: MIC ([9]; Lodderomyces parapsilosis, C. parapsilosis, the other isolates (not #7629))
0.004 µg/mL: MIC ([12]; Trichophyton mentagrophytes, T. mentagrophytes strain 2126)
0.06 µg/mL: MIC50 ([5]; n = 18) | MIC ([8]; Epidermophyton floccosum, E. floccosum strain 1666) | MIC ([8]; Epidermophyton floccosum, E. floccosum strain 1798) | MIC ([8]; Epidermophyton floccosum, E. floccosum strain 1925) | MIC ([8]; Epidermophyton floccosum, E. floccosum strain 2165) | MIC50 [8, 15] | MFC ([10]; T. rubrum strain 1967, read-out: MFC) | MFC ([10]; T. rubrum strain 2098, read-out: MFC) | MFC ([10]; T. rubrum strain 2246, read-out: MFC) | MFC ([10]; T. rubrum strain 8063, read-out: MFC) | MFC ([10]; T. rubrum strain 8071, read-out: MFC) | MFC ([10]; T. rubrum, n = 6, read-out: MFC, row MIC50) | MIC ([12]; Trichophyton mentagrophytes, T. mentagrophytes strain 2124) | MIC ([12]; Trichophyton mentagrophytes, T. mentagrophytes strain 2125) | MIC ([12]; Trichophyton mentagrophytes, T. mentagrophytes strain 2127) | MIC50 [12, 17]
> 64 µg/mL: MIC Range ([1]; S. aureus, listed as tolnaftate) | MIC50 [1, 13] | MIC90 [1, 13] | MIC ([1]; Staphylococcus aureus, S. aureus strain 730, 80% inhibition, 16 h, read-out: MIC) | MIC ([1]; Staphylococcus aureus, S. aureus strain 732, read-out: MIC) | MIC ([3]; S. epidermidis strain 8475, read-out: MIC) | MIC ([3]; S. epidermidis strain 8476, read-out: MIC) | MIC ([3]; S. epidermidis strain 8477, read-out: MIC) | MIC90 ([3]; S. epidermidis, n = 6) | MIC50 [4] | MIC90 [4] | MIC90 [7]
0.125 µg/mL: MIC90 ([5]; n = 18) | MIC ([8]; Epidermophyton floccosum, E. floccosum strain 1926) | MIC ([8]; Epidermophyton floccosum, E. floccosum strain 1961) | MIC90 [8, 15] | MFC ([10]; T. rubrum strain 8092, read-out: MFC) | MFC ([10]; T. rubrum, n = 6, read-out: MFC, row MIC90) | MIC ([12]; Trichophyton mentagrophytes, T. mentagrophytes strain 2128) | MIC90 [12, 17]
